Source: patent US9834535B2, “Sulfamate derivative compounds for use in treating or alleviating pain” (Bio-Pharm Solutions Co., Ltd., priority 2013, dated 2017)

Experiments:
[1] = system: SNL model; experiment: Antiallodynic activity on Chung model (SNL, spinal nerve ligation; von Frey); format: in vivo, Sprague-Dawley rats; details: rat, oral, von Frey, 1 h
Experimental: Male. Sprague-Dawley rats (200-220 g, Orient Bio, Korea) were habituated for 1 week before the experiment and allowed free access to food and water throughout the experimentation. Room temperature and humidity were maintained at 24±2° C. and 50±10%, respectively. Neuropathic surgery (SNL, Spinal nerve ligation) model was clone as described in Kim and Chung (1992). Briefly, animal under gaseous anesthesia with isoflurane a 4:4 flow ratio of NO2. The left lumber spinal nerve L5 and L6 were isolated and tightly ligated with 4-0 silk thread. The wound was treated with a gentamicin antibiotics solution (4 mg/kg, 4 ul/g, bw), and the wound muscle was closed with cat cut chrom 4/0 thread and skin was closed dafilon 4/0 tread. Sham controls were prepared in the same manner as the spinal nerves were exposed, but no ligated L5 and L6 nerves. But, vehicle controls were identical to SNL model, except for administration of vehicles.
Tactile sensitivity (Mechanical allodynia) was evaluated using von Frey monofilaments before and after treatment and animals were used withdrawal threshold value was less than 4 g. One week after surgery, SNL-operated animals (n=4˜6), sham-operated animals (n=4˜10) and vehicle-operated animals (n=4˜13) were tested for tactile sensitivity with von Frey monofilaments 3 trials in each animal. All Animals were placed in a stainless steel mashed chamber and habituated for 30 min in the test box. The tactile sensitivity for ipsilateral hind paw was measured using the up-and-down method (Dixon, 1980) with seven von Frey monofilaments (0.4, 1, 2, 4, 6, 8, and 15 g) to 3 trials. Tactile sensitivity test was followed by Dixon's method (Dixon, 1980). The 50% paw withdrawal threshold for each paw was calculated using the following formula: [Xth] log=[vFr] log+ky where [vFr] is the force of the last von Frey used, k=0.2249 which is the average interval (in log units) between the von Frey monofilaments, and y is a value that depends upon the pattern of withdrawal responses (Dixon, 1980).
All animals were fasted 18 h before the administration of the compounds. The antiallodynic effect of the compounds were evaluated at the various dose (n=5˜6), orally administrated in a volume of 5 ul/g, bw in a vehicle of 30% (v/v) PEG 400 or 20% (v/v) Tween 80 or Saline. […]
The relative values compared to the sham group (% control) were calculated and shown in Table 5, which show an antiallodynic effect of the test compounds on SNL model in rats.

[2] = system: STZ-induced pain model; experiment: Antiallodynic activity on streptozotocin (STZ)-induced diabetic pain model (von Frey); format: in vivo, Sprague-Dawley rats; details: ip, rat, intraperitoneal, 0.5 h
Experimental: Male, Sprague-Dawley rats (200-220 g, Nara Bio, Korea) were habituated for 1 week before surgery and allowed free access to food and water throughout the experimentation. Room temperature and humidity were maintained at 24±2° C. and 50±10%, respectively.
STZ-induced diabetic pain model was established with a modified method of Rakieten et al. (1963) and Bertrand Aubel et al. (2004). All animals were fasted 4 to 6 hr prior to STZ injection. STZ (sigma, USA) was dissolved in 20 mM sodium citrate buffer, pH 5.5 (sigma, USA) and intraperitoneally injected at 75 mg/kg, 4 ul/g, bw into the rats. […]
Tactile sensitivity (Mechanical allodynia) was evaluated using von Frey monofilaments before and after treatment of the compound of Examples and animals were used withdrawal threshold value was less than 4 g. […] The tactile sensitivity for ipsilateral hind paw was measured using the up-and-down method (Dixon, 1980) with seven von Frey monofilaments (0.4, 1, 2, 4, 6, 8, and 15 g) to 3 trials. […] The 50% paw withdrawal threshold for each paw was calculated using the following formula: [Xth] log=[vFr] log+ky where [vFr] is the force of the last von Frey used k=0.2249 which is the average interval (in log units) between the von Frey monofilaments, and y is a value that depends upon the pattern of withdrawal responses (Dixon, 1980). […]

Which results are given for CC1(C)O[C@@H](COS(N)(=O)=O)[C@H](c2ccccc2Cl)O1 [Example 2, ((4S,5S)-5-(2-chlorophenyl)-2,2-dimethyl-1,3-dioxolan-4-yl)methyl sulfamate]?
ED50 [1]: 18.2 mg/kg; ED50 [2]: 7.9 mg/kg
